pIC50: −log10 of the molar value.
Experiments:
Details in all cases: average where tested multiple times
[1] = molecular target: T1, BCAT2 (Homo sapiens, UniProt O15382); test: BCAT2 in vitro enzyme inhibition assay (resazurin/diaphorase-coupled fluorescence); format: biochemical
T1 sequence (O15382 28-392): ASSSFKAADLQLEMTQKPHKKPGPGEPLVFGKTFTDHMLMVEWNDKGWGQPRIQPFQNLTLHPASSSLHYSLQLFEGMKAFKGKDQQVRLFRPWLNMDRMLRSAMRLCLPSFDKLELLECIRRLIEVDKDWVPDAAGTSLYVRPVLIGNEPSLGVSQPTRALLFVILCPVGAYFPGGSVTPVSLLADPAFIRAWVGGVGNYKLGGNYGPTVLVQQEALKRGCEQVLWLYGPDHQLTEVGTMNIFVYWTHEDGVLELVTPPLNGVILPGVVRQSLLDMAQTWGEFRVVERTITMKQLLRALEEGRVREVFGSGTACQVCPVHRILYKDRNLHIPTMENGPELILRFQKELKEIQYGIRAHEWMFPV
How it was run: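 Coupled fluorescence readout: glutamate formed from L-leucine/α-ketoglutarate transamination drives GDH/NAD/diaphorase reduction of resazurin (Ex 540/Em 590). Human BCAT2 was first exposed 1 h at room temperature to compound, top final 100 μM in 3-fold, 10-point series; substrate reaction ran 1 h before SDS quench, in technical duplicate with DMSO max and enzyme-free min controls.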

[2] = molecular target: T2, hBCAT1 (Homo sapiens, UniProt P54687); test: BCAT1 in vitro enzyme inhibition assay (resazurin/diaphorase-coupled fluorescence); format: biochemical
T2 sequence (P54687 1-386): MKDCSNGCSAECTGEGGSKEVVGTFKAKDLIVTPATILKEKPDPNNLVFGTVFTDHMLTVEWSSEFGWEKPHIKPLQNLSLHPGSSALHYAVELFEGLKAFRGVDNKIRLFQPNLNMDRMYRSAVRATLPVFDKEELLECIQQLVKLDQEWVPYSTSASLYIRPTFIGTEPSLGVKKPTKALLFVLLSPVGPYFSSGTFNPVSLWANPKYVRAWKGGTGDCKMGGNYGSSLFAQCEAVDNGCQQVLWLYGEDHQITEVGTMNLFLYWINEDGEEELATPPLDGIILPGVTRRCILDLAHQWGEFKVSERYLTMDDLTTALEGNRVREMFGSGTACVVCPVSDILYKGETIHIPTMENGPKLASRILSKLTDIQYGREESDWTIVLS
How it was run: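 Human BCAT1 activity read by resazurin/diaphorase-coupled fluorescence. Compounds added from 50× DMSO stocks at 1:50, giving 10-point 3-fold titrations from 100 μM top final concentration. Run in technical duplicate; repeat tests averaged.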

[3] = molecular target: T1, BCAT2; test: BCAT2 in vitro cell inhibition using engineered A549 cells (KMV cell assay, 13C6-KMV by LC-MS/MS); format: cell-based; set-up: The result was an engineered A549 cell line that expressed endogenous BCAT2; endogenous in cells; host or cells: A549 cells with MUT and BCAT1 knocked out by CRISPR/CAS9; key to BCAT2 Cell Inhibition: A: less than or equal to 0.100 μM; B: greater than 0.100 and less than or equal to 0.500 μM; C: greater than 0.500 and less than or equal to 1.000 μM; d: greater than 1.000 μM; E: no fit

Row | pIC50 [1] | pIC50 [2] | pIC50 [3] | BCAT2 Cell Inhibition [3] | SMILES
1 | ≥ 7.00 | > 6.30 | 6.30 to 7.00 | – | O=C(N[C@H]1CCC[C@@H](n2c(-c3ccccc3F)nc3cnc(-c4cn[nH]c4)cc32)C1)c1ncc(Cl)s1 [Example 81, 5-chloro-N-((1S,3R)-3-(2-(2-fluorophenyl)-6-(1H-pyrazol-4-yl)-1H-imidazo[4,5-c]pyridin-1-yl)cyclohexyl)thiazole-2-carboxamide]
2 | < 6.00 | < 5.30 | – | E | Cn1cc(-c2nc3cnc(-n4ccnn4)cc3n2[C@@H]2CCC[C@H](NC(=O)c3ncc(C(F)F)s3)C2)cn1 [Example 46, 5-(difluoromethyl)-N-((1S,3R)-3-(2-(1-methyl-1H-pyrazol-4-yl)-6-(1H-1,2,3-triazol-1-yl)-1H-imidazo[4,5-c]pyridin-1-yl)cyclohexyl)thiazole-2-carboxamide]
3 | ≥ 7.00 | > 6.30 | ≥ 7.00 | – | O=C(N[C@H]1CCC[C@@H](n2c(-c3ccccc3F)nc3cnc(-c4ncn(C(F)F)n4)cc32)C1)c1ncc(Cl)s1 [Example 378, 5-chloro-N-((1S,3R)-3-(6-(1-(difluoromethyl)-1H-1,2,4-triazol-3-yl)-2-(2-fluorophenyl)-1H-imidazo[4,5-c]pyridin-1-yl)cyclohexyl)thiazole-2-carboxamide]
4 | ≥ 7.00 | > 6.30 | ≥ 7.00 | – | O=C(N[C@H]1CCC[C@@H](n2c(-c3ccccc3F)nc3cnc(-c4ccn[nH]4)cc32)C1)c1ncc(C(F)F)s1 [Example 77, 5-(difluoromethyl)-N-((1S,3R)-3-(2-(2-fluorophenyl)-6-(1H-pyrazol-5-yl)-1H-imidazo[4,5-c]pyridin-1-yl)cyclohexyl)thiazole-2-carboxamide]
5 | ≥ 7.00 | 6.00 to 6.30 | 6.30 to 7.00 | – | C#Cc1cnc(C(=O)N[C@H]2CCC[C@@H](n3c(-c4ncccc4F)nc4cnc(-n5cncn5)cc43)C2)s1 [Example 29, 5-ethynyl-N-((1S,3R)-3-(2-(3-fluoropyridin-2-yl)-6-(1H-1,2,4-triazol-1-yl)-1H-imidazo[4,5-c]pyridin-1-yl)cyclohexyl)thiazole-2-carboxamide]
6 | ≥ 7.00 | > 6.30 | ≥ 7.00 | – | O=C(N[C@H]1CCC[C@@H](n2c(-c3ncccc3F)nc3cnc(-c4cc[nH]n4)cc32)C1)c1ncc(C(F)F)s1 [Example 55, 5-(difluoromethyl)-N-((1S,3R)-3-(2-(3-fluoropyridin-2-yl)-6-(1H-pyrazol-3-yl)-1H-imidazo[4,5-c]pyridin-1-yl)cyclohexyl)thiazole-2-carboxamide]
7 | ≥ 7.00 | > 6.30 | ≥ 7.00 | – | CN1C[C@H](NC(=O)c2ccc(Cl)s2)C[C@H](n2c(-c3ccccc3F)nc3cnc(-c4nc[nH]n4)cc32)C1 [Example 264, 5-chloro-N-((3R,5S)-5-(2-(2-fluorophenyl)-6-(1H-1,2,4-triazol-3-yl)-1H-imidazo[4,5-c]pyridin-1-yl)-1-methylpiperidin-3-yl)thiophene-2-carboxamide]
8 | ≥ 7.00 | 5.30 to 6.00 | – | E | O=C(N[C@H]1CCC[C@@H](n2c(-c3ccccc3C(=O)O)nc3cnc(-n4nccn4)cc32)C1)c1ncc(C(F)F)s1 [Example 99, 2-(1-((1R,3S)-3-(5-(difluoromethyl)thiazole-2-carboxamido)cyclohexyl)-6-(2H-1,2,3-triazol-2-yl)-1H-imidazo[4,5-c]pyridin-2-yl)benzoic acid]
9 | ≥ 7.00 | > 6.30 | ≥ 7.00 | – | O=C(N[C@H]1CCC[C@@H](n2c(-c3ccccc3F)nc3cnc(-c4cc(F)ccn4)cc32)C1)c1ncc(Cl)s1 [Example 168, 5-chloro-N-((1S,3R)-3-(2-(2-fluorophenyl)-6-(4-fluoropyridin-2-yl)-1H-imidazo[4,5-c]pyridin-1-yl)cyclohexyl)thiazole-2-carboxamide]
10 | < 6.00 | < 5.30 | – | E | Cn1cc(-c2nc3cnc(-n4nccn4)cc3n2[C@@H]2CCC[C@H](NC(=O)c3ncc(C(F)F)s3)C2)cn1 [Example 45, 5-(difluoromethyl)-N-((1S,3R)-3-(2-(1-methyl-1H-pyrazol-4-yl)-6-(2H-1,2,3-triazol-2-yl)-1H-imidazo[4,5-c]pyridin-1-yl)cyclohexyl)thiazole-2-carboxamide]
11 | 6.30 to 7.00 | 5.30 to 6.00 | < 6.00 | – | O=C(N[C@H]1CCC[C@@H](n2c(-c3ccccn3)nc3cnc(-n4ccnn4)cc32)C1)c1ncc(Br)s1 [Example 32, 5-bromo-N-((1S,3R)-3-(2-(pyridin-2-yl)-6-(1H-1,2,3-triazol-1-yl)-1H-imidazo[4,5-c]pyridin-1-yl)cyclohexyl)thiazole-2-carboxamide]
12 | ≥ 7.00 | > 6.30 | ≥ 7.00 | – | CO[C@H]1C[C@@H](NC(=O)c2ncc(Cl)s2)C[C@@H](n2c(CC(C)C)nc3cnc(-c4nc[nH]n4)cc32)C1 (stereo in doubt) [Example 432, 5-chloro-N-((1S,3R,5S)-3-(2-isobutyl-6-(1H-1,2,4-triazol-3-yl)-1H-imidazo[4,5-c]pyridin-1-yl)-5-methoxycyclohexyl)thiazole-2-carboxamide]
13 | ≥ 7.00 | > 6.30 | 6.30 to 7.00 | – | CC(=O)N1CC(NC(=O)c2ncc(C(F)F)s2)CC(n2c(-c3ncccc3F)nc3cnc(-n4nccn4)cc32)C1 (stereo not drawn) [Example 119, N-(1-acetyl-5-(2-(3-fluoropyridin-2-yl)-6-(2H-1,2,3-triazol-2-yl)-1H-imidazo[4,5-c]pyridin-1-yl)piperidin-3-yl)-5-(difluoromethyl)thiazole-2-carboxamide]
14 | ≥ 7.00 | > 6.30 | ≥ 7.00 | – | O=C(N[C@H]1CCC[C@@H](n2c(-c3ccccc3F)nc3cnc(-n4nccn4)cc32)C1)c1ccc(Cl)s1 [Example 72, 5-chloro-N-((1S,3R)-3-(2-(2-fluorophenyl)-6-(2H-1,2,3-triazol-2-yl)-1H-imidazo[4,5-c]pyridin-1-yl)cyclohexyl)thiophene-2-carboxamide]
15 | ≥ 7.00 | > 6.30 | 6.00 to 6.30 | – | CC(C)Cc1nc2cnc(-n3cc(F)cn3)cc2n1[C@@H]1CCC[C@H](NC(=O)c2ncc(Cl)s2)[C@H]1O [Example 232, 5-chloro-N-((1S,2R,3R)-3-(6-(4-fluoro-1H-pyrazol-1-yl)-2-isobutyl-1H-imidazo[4,5-c]pyridin-1-yl)-2-hydroxycyclohexyl)thiazole-2-carboxamide]
16 | ≥ 7.00 | > 6.30 | – | E | O=C(N[C@H]1CCC[C@@H](n2c(-c3ccccc3OC(F)F)nc3cnc(-c4nc[nH]n4)cc32)C1)c1ncc(Cl)s1 [Example 367, 5-chloro-N-((1S,3R)-3-(2-(2-(difluoromethoxy)phenyl)-6-(1H-1,2,4-triazol-3-yl)-1H-imidazo[4,5-c]pyridin-1-yl)cyclohexyl)thiazole-2-carboxamide]
17 | ≥ 7.00 | > 6.30 | 6.30 to 7.00 | – | N#CC1CC(NC(=O)c2ncc(Cl)s2)CC(n2c(-c3ccccc3F)nc3cnc(-c4nc[nH]n4)cc32)C1 (single isomer, unassigned) [Example 451, 5-chloro-N-(3-cyano-5-(2-(2-fluorophenyl)-6-(1H-1,2,4-triazol-3-yl)-1H-imidazo[4,5-c]pyridin-1-yl)cyclohexyl)thiazole-2-carboxamide]
18 | ≥ 7.00 | > 6.30 | ≥ 7.00 | – | Cc1cnn(-c2cc3c(cn2)nc(-c2ccccn2)n3[C@@H]2CCC[C@H](NC(=O)c3ccc(Br)s3)C2)n1 [Example 39, 5-bromo-N-((1S,3R)-3-(6-(4-methyl-2H-1,2,3-triazol-2-yl)-2-(pyridin-2-yl)-1H-imidazo[4,5-c]pyridin-1-yl)cyclohexyl)thiophene-2-carboxamide]

From patent US20260159512A1, “BCAT2 INHIBITORS” (AGIOS PHARMACEUTICALS, INC., priority 2021, published 2026)
